Laboratory results reported in ChEMBL document CHEMBL1150968, “Debromosceptrin, an alkaloid from the Caribbean sponge Agelas conifera” (1998).
Calls of active or inactive are those of the source. The rule behind the calls is not given here.

Legend:
[1] = tested on: Mycobacterium tuberculosis; test: Antimycobacterial activity against Mycobacterium tuberculosis at 12.5 ug/ml; format: functional
[2] = tested on: Human immunodeficiency virus; test: Antiviral activity against HIV; format: functional, organism-based

Row | Compound | Activity [1] | Activity [2]
1 | Cl.Cl.Nc1ncc([C@H]2[C@H](CNC(=O)c3cc(Br)c[nH]3)[C@@H](CNC(=O)c3cc(Br)c[nH]3)[C@@H]2c2cnc(N)[nH]2)[nH]1 [SCEPTRIN HYDROCHLORIDE] | 14% | –
2 | Cl.Cl.Nc1ncc([C@H]2[C@H](CNC(=O)c3ccc[nH]3)[C@@H](CNC(=O)c3cc(Br)c[nH]3)[C@@H]2c2cnc(N)[nH]2)[nH]1 [MONOBROMOSCEPTRIN] | 35% | –
3 | Nc1nc([C@H]2[C@H](CNC(=O)c3ccc[nH]3)[C@@H](CNC(=O)c3cc(Br)c[nH]3)[C@@H]2c2c[nH]c(N)n2)c[nH]1 | – | inactive
4 | Nc1nc([C@H]2[C@H](CNC(=O)c3cc(Br)c[nH]3)[C@@H](CNC(=O)c3cc(Br)c[nH]3)[C@@H]2c2c[nH]c(N)n2)c[nH]1 | – | inactive
5 | Nc1ncc([C@H]2[C@H](CNC(=O)c3ccc[nH]3)[C@@H](CNC(=O)c3ccc[nH]3)[C@@H]2c2cnc(N)[nH]2)[nH]1 | – | inactive
